We go through 22 compounds from US7816353B2 (Exelixis, Inc., priority 2003, dated 2010).

Holding throughout (assay type): biochemical
The target of assay [1] is T1, Akt1 (Homo sapiens, UniProt P31749).
T1 construct: made in house
The assay can be described thus: Akt1 Kinase Assay (Luciferase-Coupled Chemiluminescent Kinase assay, LCCA). The conditions noted are these: human Akt1 kinase domain residues R144-A480, activated with PDK1; 1 μM ATP; read-out: Akt-1 IC50. On the procedure: (§1) Kinase activity and compound inhibition are investigated using one or more of the three assay formats described below. The ATP concentrations for each assay are selected to be close to the Michaelis-Menten constant (KM) for each individual kinase. Dose-response experiments are performed at 10 different inhibitor concentrations in a 384-well plate format. The data are fitted to four-parameter equation (2) below; where Y is the observed signal, X is the inhibitor concentration, Min is the background signal in the absence of enzyme (0% enzyme activity), Max is the signal in the absence of inhibitor (100% enzyme activity), IC50 is the inhibitor concentration at 50% enzyme inhibition and H represents the empirical Hill's slope to measure the cooperativity. Typically H is close to unity. Y=Min+(Max−Min)/(1+(X/IC50)^H) Equation (2) p70S6 Kinase Assay
Biochemical activity of Akt1 kinase was assessed using a Luciferase-Coupled Chemiluminescent Kinase assay (LCCA) format. Kinase activity was measured as the percent ATP remaining following the kinase reaction. Remaining ATP was detected by luciferase-luciferin-coupled chemiluminescence. Specifically, the reaction was initiated by mixing test compounds, 1 μM ATP, 5 μM crosstide peptide and 1.3 nM Akt1 (baculovirus expressed human Akt1 kinase domain residues R144-A480, activated with PDK1) in a 20 uL assay buffer (20 mM Tris-HCL pH 7.5, 10 mM MgCl2, 0.01% Triton X-100, 1 mM DTT, 3 mM MnCl2). The mixture is incubated at ambient temperature for 3 hours after which 20 μL luciferase-luciferin mix is added and the chemiluminescent signal read using a Wallac Victor2 reader. The luciferase-luciferin mix consists of 50 mM HEPES, pH 7.8, 8.5 μg/mL oxalic acid (pH 7.8), 5 (or 50) mM DTT, 0.4% Triton X-100, 0.25 mg/mL coenzyme A, 63 uM AMP, 28 μg/mL luciferin and 40,000 units/mL luciferase.

Assay [2] has as its target T2, p70S6K (Homo sapiens, UniProt P23443, T412E).
T2 construct: human p70S6 kinase domain residues 1-421, containing a T412E mutation; made in house
The assay can be described thus: p70S6 Kinase Assay (Luciferase-Coupled Chemiluminescent Kinase assay, LCCA). The conditions noted are these: human p70S6 kinase domain residues 1-421, T412E; 5 μM ATP; read-out: p70S6K IC50. In short, it runs like this:
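Luciferase-coupled chemiluminescence measured percent ATP remaining after the 2 h kinase reaction at ambient temperature, with ATP near the kinase's KM. Ten inhibitor concentrations were tested. IC50 was obtained from a Hill-equation fit.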

In assay [3] the target is T3, PDK1 (Homo sapiens, UniProt O15530).
T3 construct: human PDK1 kinase domain residues M51-T359; made in house
T3 sequence (O15530 51-359): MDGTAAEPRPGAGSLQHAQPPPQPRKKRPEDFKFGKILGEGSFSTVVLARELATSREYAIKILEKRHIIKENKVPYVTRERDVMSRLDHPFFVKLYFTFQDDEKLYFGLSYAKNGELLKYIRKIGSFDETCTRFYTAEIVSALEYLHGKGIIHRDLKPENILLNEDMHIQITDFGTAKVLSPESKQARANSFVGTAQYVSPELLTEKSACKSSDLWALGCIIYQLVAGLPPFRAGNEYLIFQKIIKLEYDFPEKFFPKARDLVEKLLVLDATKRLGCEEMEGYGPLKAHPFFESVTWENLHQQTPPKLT
The assay is described as follows: PDK1 Kinase Assay (Luciferase-Coupled Chemiluminescent Kinase assay, LCCA). As to conditions: human PDK1 kinase domain residues M51-T359; 0.5 μM ATP; read-out: PDK-1 IC50. On the procedure:
as §1
Biochemical activity of PDK1 kinase was assessed using a Luciferase-Coupled Chemiluminescent Kinase assay (LCCA) format. Kinase activity was measured as the percent ATP remaining following the kinase reaction. Remaining ATP was detected by luciferase-luciferin-coupled chemiluminescence. Specifically, the reaction was initiated by mixing test compounds, 0.5 μM ATP, 0.6 μM PDKtide peptide and 6 nM PDK1 (baculovirus expressed human PDK1 kinase domain residues M51-T359) in a 20 uL assay buffer (20 mM Hepes pH 7.5, 1 mM CaCl2, 0.03% CHAPS, 2 mM DTT). The mixture is incubated at ambient temperature for 3 hours after which 20 μL luciferase-luciferin mix is added and the chemiluminescent signal read using a Wallac Victor2 reader. The luciferase-luciferin mix consists of 50 mM HEPES, pH 7.8, 8.5 μg/mL oxalic acid (pH 7.8), 5 (or 50) mM DTT, 0.4% Triton X-100, 0.25 mg/mL coenzyme A, 63 uM AMP, 28 μg/mL luciferin and 40,000 units/mL luciferase.

T1 sequence (P31749 144-480): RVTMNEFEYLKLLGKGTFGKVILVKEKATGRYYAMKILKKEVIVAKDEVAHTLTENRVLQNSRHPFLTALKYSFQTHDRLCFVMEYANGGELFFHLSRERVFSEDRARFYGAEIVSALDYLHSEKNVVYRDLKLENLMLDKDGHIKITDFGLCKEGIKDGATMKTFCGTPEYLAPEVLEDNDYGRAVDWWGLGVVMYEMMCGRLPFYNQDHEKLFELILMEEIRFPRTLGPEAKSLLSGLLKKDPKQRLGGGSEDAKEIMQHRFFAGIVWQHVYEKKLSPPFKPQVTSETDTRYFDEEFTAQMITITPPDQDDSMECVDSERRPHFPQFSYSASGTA
T2 sequence (P23443 1-421 T412E): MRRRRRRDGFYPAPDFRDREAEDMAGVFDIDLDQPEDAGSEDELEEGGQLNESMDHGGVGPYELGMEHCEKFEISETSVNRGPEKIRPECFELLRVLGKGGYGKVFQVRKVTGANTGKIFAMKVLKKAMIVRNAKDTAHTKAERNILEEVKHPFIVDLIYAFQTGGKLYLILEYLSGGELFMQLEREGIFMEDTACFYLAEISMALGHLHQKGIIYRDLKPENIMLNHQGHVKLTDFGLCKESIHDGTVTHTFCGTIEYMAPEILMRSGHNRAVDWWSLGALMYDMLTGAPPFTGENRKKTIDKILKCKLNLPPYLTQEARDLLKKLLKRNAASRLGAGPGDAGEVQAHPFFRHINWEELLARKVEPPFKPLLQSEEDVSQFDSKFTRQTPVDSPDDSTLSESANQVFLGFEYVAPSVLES

For the compound `CSc1cc(OCC(=O)Nc2cccc(C(F)(F)F)c2)nc(N)n1`, the IC50 in assay [1] is more than 2000 nM; in assay [2], less than 50 nM; in assay [3], more than 2000 nM.

Take `Nc1nc(NCC(=O)Nc2cccc(C(F)(F)F)c2)cc(N2CCOCC2)n1`: the IC50 in assay [2] was less than 50 nM; in assay [3], more than 2000 nM.

Take `Cc1nc(OCC(=O)Nc2cccc(C(F)(F)F)c2)c(C#N)c(C)c1[N+](=O)[O-]` [Example 1, 2-[(3-cyano-4,6-dimethyl-5-nitropyridin-2-yl)oxy]-N-[3-(trifluoromethyl)phenyl]acetamide]: the IC50 is more than 2000 nM in assay [1], less than 50 nM in assay [2] and more than 2000 nM in assay [3].

In the case of `CSc1nc(N)nc(SCC(=O)Nc2ccc(C(F)(F)F)cn2)c1C#N` [Example 4], the IC50 in assay [1] is more than 2000 nM; in assay [2], less than 50 nM; in assay [3], more than 2000 nM.

Turning to `CSc1cc(NCC(=O)Nc2cccc(C(F)(F)F)c2)nc(N)n1` [Example 5], the concentration for half-maximal inhibition (IC50) is more than 2000 nM in assay [1], less than 50 nM in assay [2] and more than 2000 nM in assay [3].

`CSc1nc(N)nc(SCC(=O)N(C)c2cccc(C(F)(F)F)c2)c1C#N` [Example 16, 2-{(2-amino-5-cyano-6-(methylthio)pyrimidin-4-yl]thio}-N-methyl-N-[3-(trifluoromethyl)phenyl]acetamide]: the results for the IC50 in assay [1], in assay [2] and in assay [3] were more than 2000 nM, 50 to 500 nM and more than 2000 nM, respectively.

On to `CSc1nc(N)nc(NCC(=O)Nc2cccc(C(F)(F)F)c2)c1C#N` [Example 20, N^2-[2-amino-5-cyano-6-(methylthio)pyrimidin-4-yl]-N-[3-(trifluoromethyl)phenyl]glycinamide], for which the IC50 in assay [1] is more than 2000 nM; in assay [2] it was 50 to 500 nM; in assay [3], more than 2000 nM.

Regarding `CSc1nc(N)nc(SCC(=O)Nc2cccc(C(F)(F)F)c2)c1C#N` [Example 21, 2-{[2-amino-5-cyano-6-(methylthio)pyrimidin-4-yl]thio}-N-[3-(trifluoromethyl)phenyl]acetamide], the half-inhibitory concentration (IC50) in assay [1] was more than 2000 nM; in assay [2], less than 50 nM; in assay [3], more than 2000 nM.

For the compound `CCCCOc1cccc(NC(=O)CSc2nc(N)nc(SC)c2C#N)c1` [Example 22, 2-{[2-amino-5-cyano-6-(methylthio)pyrimidin-4-yl]thio}-N-[3-(butyloxy)phenyl]acetamide], the half-maximal inhibitory concentration (IC50) in assay [1] is more than 2000 nM; in assay [2] it was less than 50 nM; in assay [3] it was more than 2000 nM.

Regarding `CCc1nnc(NC(=O)CSc2nc(N)nc(SC)c2C#N)s1` [Example 24, 2-{[2-amino-5-cyano-6-(methylthio)pyrimidin-4-yl]thio}-N-(5-ethyl-1,3,4-thiadiazol-2-yl)acetamide], the results for the IC50 in assay [1], in assay [2] and in assay [3] were more than 2000 nM, less than 50 nM and more than 2000 nM, respectively.

Take `CSc1nc(N)nc(SCC(=O)Nc2nc(C)cs2)c1C#N` [Example 25, 2-{[2-amino-5-cyano-6-(methylthio)pyrimidin-4-yl]thio}-N-(4-methyl-1,3-thiazol-2-yl)acetamide]: the IC50 in assay [1] is more than 2000 nM; in assay [2], less than 50 nM; in assay [3], more than 2000 nM.

On to `CSc1nc(N)nc(SCC(=O)n2nc(C)cc2C)c1C#N` [Example 26, 2-amino-4-{[2-(3,5-dimethyl-1H-pyrazol-1-yl)-2-oxoethyl]thio}-6-(methylthio)pyrimidine-5-carbonitrile], for which the half-maximal inhibitory concentration (IC50) in assay [1] was more than 2000 nM; in assay [2], less than 50 nM; in assay [3] it was more than 2000 nM.

As to `CSc1nc(N)nc(SCC(=O)Nc2nccs2)c1C#N` [Example 27, 2-{[2-amino-5-cyano-6-(methylthio)pyrimidin-4-yl]thio}-N-1,3-thiazol-2-ylacetamide], the values for the half-maximal inhibitory concentration (IC50) in assay [1], in assay [2] and in assay [3] were more than 2000 nM, less than 50 nM and more than 2000 nM, respectively.

Consider `CCOC(=O)c1sc(NC(=O)CSc2nc(N)nc(SC)c2C#N)c(C#N)c1C` [Example 28, ethyl 5-[({[2-amino-5-cyano-6-(methylthio)pyrimidin-4-yl]thio}acetyl)amino]-4-cyano-3-methylthiophene-2-carboxylate], for which the IC50 in assay [1] is more than 2000 nM; in assay [2] it was less than 50 nM; in assay [3] it was more than 2000 nM.

For the compound `CSc1nc(N)nc(SCC(=O)Nc2ccccn2)c1C#N` [Example 29, 2-{[2-amino-5-cyano-6-(methylthio)pyrimidin-4-yl]thio}-N-pyridin-2-ylacetamide], the IC50 in assay [1] was more than 2000 nM; in assay [2] it was less than 50 nM; in assay [3] it was more than 2000 nM.

Take `COc1ccc(OC)c(C(=O)CSc2nc(N)nc(SC)c2C#N)c1` [Example 30, 2-amino-4-({2-[2,5-bis(methyloxy)phenyl]-2-oxoethyl}thio)-6-(methylthio)pyrimidine-5-carbonitrile]: the IC50 is more than 2000 nM in assay [1], less than 50 nM in assay [2] and more than 2000 nM in assay [3].

Take `CSc1nc(N)nc(SCC(=O)Nc2ccc(F)c(C(F)(F)F)c2)c1C#N` [Example 31, 2-{[2-amino-5-cyano-6-(methylthio)pyrimidin-4-yl]thio}-N-[4-fluoro-3-(triuoromethyl)phenyl]acetamide]: the IC50 is more than 2000 nM in assay [1], less than 50 nM in assay [2] and more than 2000 nM in assay [3].

With `Nc1cc(SCC(=O)Nc2ccc(F)c(C(F)(F)F)c2)nc(N)n1` [Example 32, 2-[(2,6-diaminopyrimidin-4-yl)thio]-N-[4-fluoro-3-(trifluoromethyl)phenyl]acetamide], the half-maximal inhibitory concentration (IC50) in assay [1] was more than 2000 nM; in assay [2], less than 50 nM; in assay [3], more than 2000 nM.

For the compound `Nc1cc(SCC(=O)Nc2cccc(C(F)(F)F)c2)nc(N)n1` [Example 33, 2-[(2,6-diaminopyrimidin-4-yl)thio]-N-[3-(trifluoromethyl)phenyl]acetamide], the concentration for half-maximal inhibition (IC50) in assay [1] was more than 2000 nM; in assay [2], less than 50 nM; in assay [3], more than 2000 nM.

As to `CSc1nc(N)nc(SCC(=O)Nc2ccc(Cl)c(C(F)(F)F)c2)c1C#N` [Example 34, 2-{[2-amino-5-cyano-6-(methylthio)pyrimidin-4-yl]thio}-N-[4-chloro-3-(trifluoromethyl)phenyl]acetamide], the IC50 is more than 2000 nM in assay [1], less than 50 nM in assay [2] and more than 2000 nM in assay [3].

`CSc1nc(N)nc(SC2CCN(c3cccc(C(F)(F)F)c3)C2=O)c1C#N` (centres unmarked) [Example 35, 2-amino-4-(methylthio)-6-({2-oxo-1-[3-(trifluoromethyl)phenyl]pyrrolidin-3-yl}thio)pyrimidine-5-carbonitrile]: the figures for the half-maximal inhibitory concentration (IC50) in assay [1], in assay [2] and in assay [3] were more than 2000 nM, less than 50 nM and more than 2000 nM, respectively.

For `CSc1nc(N)nc(SCC(=O)Nc2cccc(C(F)(F)F)n2)c1C#N` [Example 36, 2-{[2-amino-5-cyano-6-(methylthio)pyrimidin-4-yl]thio}-N-[6-(trifluoromethyl)pyridin-2-yl]acetamide], the half-maximal inhibitory concentration (IC50) in assay [1] was more than 2000 nM; in assay [2], less than 50 nM; in assay [3], more than 2000 nM.

What is called IC50 is the midpoint of a concentration-inhibition curve.
